In patent US12344610B2, “APOL1 inhibitors and methods of use” (Maze Therapeutics, Inc., priority 2022, dated 2025):

Biological target: T1, APOL1 G2 (Homo sapiens, UniProt O14791, DEL388-389)
T1 construct: expressed in transfected cells; host or cells: HEK293 T-REx clonal line stably expressing GCaMP6f (HEK T-REx/GCaMP6f/APOL1 G2 K6.3), doxycycline induced
T1 sequence (O14791 with tags, fused parts or gaps DEL388-389): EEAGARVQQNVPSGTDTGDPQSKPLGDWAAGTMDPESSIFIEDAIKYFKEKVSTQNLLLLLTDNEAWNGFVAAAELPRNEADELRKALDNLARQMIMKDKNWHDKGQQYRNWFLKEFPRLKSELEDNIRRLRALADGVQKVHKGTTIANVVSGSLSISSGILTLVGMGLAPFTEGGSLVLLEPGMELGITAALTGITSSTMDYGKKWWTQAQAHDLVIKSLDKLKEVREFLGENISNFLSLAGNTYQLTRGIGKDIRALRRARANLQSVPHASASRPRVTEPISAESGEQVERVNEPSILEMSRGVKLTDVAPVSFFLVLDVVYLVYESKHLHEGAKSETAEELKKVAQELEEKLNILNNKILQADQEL
Assay: APOL1-mediated calcium transport (calcium influx) assay, HEK T-REx/GCaMP6f/APOL1 G2 K6.3 cells, FLIPR TETRA
Type: cell-based
Conditions: prevention of calcium influx; geometric mean of at least 2 assay runs; † = average of a technical replicate from a single assay run
Method in brief: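 A HEK293 T-REx clone stably expressing GCaMP6f had APOL1 G2 induced with doxycycline (20 ng/mL solution added) for 6 h. Cells were then washed into Ca2+-free Tyrode's buffer (pH 7.4) and preincubated with compounds (duplicate 8-point) for 10 min at room temperature. Ca2+ injection to 5 mM final produced FLIPR GCaMP fluorescence, giving AC50 for influx inhibition (geometric mean, ≥2 runs).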

SMILES | AC50 [µM]
CNC(=O)N1CCCc2cc(OCCN3CCC4(CC3)C(=O)Nc3ccc(Cl)cc34)ccc21 [Compound 60, 6-(2-{5-chloro-2-oxo-1,2-dihydrospiro[indole-3,4′-piperidin]-1′-yl}ethoxy)-N-methyl-1,2,3,4-tetrahydroquinoline-1-carboxamide] | 0.652
O=C1Nc2ccc(Cl)cc2C12CCN(CCOc1ccc3nccnc3c1)CC2 [Compound 62, 5-chloro-1′-[2-(quinoxalin-6-yloxy)ethyl]-1,2-dihydrospiro[indole-3,4′-piperidin]-2-one] | 0.958
CS(=O)(=O)c1ccc(OCCN2CCC3(CC2)C(=O)Nc2ccc(Cl)cc23)cc1F [Compound 63, 5-chloro-1′-[2-(3-fluoro-4-methanesulfonylphenoxy)ethyl]-1,2-dihydrospiro[indole-3,4′-piperidin]-2-one] | 0.461
CS(=O)(=O)c1ccc(OCCN2CCC3(CC2)C(=O)Nc2ccc(Cl)cc23)cn1 [Compound 64, 5-chloro-1′-{2-[(6-methanesulfonylpyridin-3-yl)oxy]ethyl}-1,2-dihydrospiro[indole-3,4′-piperidin]-2-one] | 0.455
CN1C(=O)Cc2cc(OCCN3CCC4(CC3)C(=O)Nc3ccc(Cl)cc34)ccc21 [Compound 65, 5-chloro-1′-{2-[(1-methyl-2-oxo-2,3-dihydro-1H-indol-5-yl)oxy]ethyl}-1,2-dihydrospiro[indole-3,4′-piperidin]-2-one] | 0.639
Cc1ccc2c(c1)C1(CCN(CCOc3ccc(S(C)(=O)=O)cc3)CC1)C(=O)N2 [Compound 66, 1′-[2-(4-methanesulfonylphenoxy)ethyl]-5-methyl-1,2-dihydrospiro[indole-3,4′-piperidin]-2-one] | 0.461
Cn1ncc2cc(OCCN3CCC4(CC3)C(=O)Nc3ccc(Cl)cc34)ccc21 [Compound 68, 5-chloro-1′-{2-[(1-methyl-1H-indazol-5-yl)oxy]ethyl}-1,2-dihydrospiro[indole-3,4′-piperidin]-2-one] | < 0.249
CS(=O)(=O)c1ccc(OCCN2CCC3(CC2)C(=O)Nc2ccc(Cl)cc23)cc1 [Compound 69, 5-chloro-1′-[2-(4-methanesulfonylphenoxy)ethyl]-1,2-dihydrospiro[indole-3,4′-piperidin]-2-one] | 0.216
Cn1ncc2cc(OCCN3CCC4(CC3)C(=O)Nc3ccccc34)ccc21 [Compound 70, 1′-{2-[(1-methyl-1H-indazol-5-yl)oxy]ethyl}-1,2-dihydrospiro[indole-3,4′-piperidin]-2-one] | 0.124
CS(=O)(=O)c1ccc(OCCN2CCC3(CC2)C(=O)Nc2ccc(C#N)cc23)cc1 [Compound 71, 1′-[2-(4-methanesulfonylphenoxy)ethyl]-2-oxo-1,2-dihydrospiro[indole-3,4′-piperidine]-5-carbonitrile] | 0.626
CS(=O)(=O)c1ccc(OCCN2CCC3(CC2)C(=O)Nc2ccc(Br)cc23)cc1 [Compound 72, 5-bromo-1′-[2-(4-methanesulfonylphenoxy)ethyl]-1,2-dihydrospiro[indole-3,4′-piperidin]-2-one] | 0.252
CN(c1ccc(OCCN2CCC3(CC2)C(=O)Nc2ccc(C#N)cc23)cc1)S(C)(=O)=O [Compound 75, N-[4-(2-{5-cyano-2-oxo-1,2-dihydrospiro[indole-3,4′-piperidin]-1′-yl}ethoxy)phenyl]-N-methylmethanesulfonamide] | 0.689
CN(c1ccc(OCCN2CCC3(CC2)C(=O)Nc2ccc(Cl)cc23)cc1)S(C)(=O)=O [Compound 76, N-[4-(2-{5-chloro-2-oxo-1,2-dihydrospiro[indole-3,4′-piperidin]-1′-yl}ethoxy)phenyl]-N-methylmethanesulfonamide] | 0.678
CS(C)(=O)=Nc1ccc(OCCN2CCC3(CC2)C(=O)Nc2ccc(C#N)cc23)cc1 [Compound 77, 1′-[2-(4-{[dimethyl(oxo)-λ^6-sulfanylidene]amino}phenoxy)ethyl]-2-oxo-1,2-dihydrospiro[indole-3,4′-piperidine]-5-carbonitrile] | 1.6
CN1C(=O)CCc2cc(OCCN3CCC4(CC3)C(=O)Nc3ccc(Cl)cc34)cnc21 [Compound 78, 5-chloro-1′-{2-[(8-methyl-7-oxo-5,6,7,8-tetrahydro-1,8-naphthyridin-3-yl)oxy]ethyl}-1,2-dihydrospiro[indole-3,4′-piperidin]-2-one] | 0.522
CN1C(=O)CCc2cc(OCCN3CCC4(CC3)C(=O)Nc3ccc(C#N)cc34)cnc21 [Compound 79, 1′-{2-[(8-methyl-7-oxo-5,6,7,8-tetrahydro-1,8-naphthyridin-3-yl)oxy]ethyl}-2-oxo-1,2-dihydrospiro[indole-3,4′-piperidine]-5-carbonitrile] | 0.687
CC(C)[C@]1(O)C[C@@H](N2C(=O)CCc3cc(OCCN4CCC5(CC4)C(=O)Nc4ccc(Cl)cc45)cnc32)C1 [Compound 317, 5-chloro-1′-[2-({7-oxo-8-[(cis)-3-hydroxy-3-(propan-2-yl)cyclobutyl]-5,6,7,8-tetrahydro-1,8-naphthyridin-3-yl}oxy)ethyl]-1,2-dihydrospiro[indole-3,4′-piperidin]-2-one] | 0.792
C[C@]1(O)C[C@@H](n2c(=O)ccc3cc(OCCN4CCC5(CC4)C(=O)Nc4ccc(Cl)cc45)cnc32)C1 [Compound 323, 5-chloro-1′-[2-({7-oxo-8-[(cis)-3-hydroxy-3-methylcyclobutyl]-7,8-dihydro-1,8-naphthyridin-3-yl}oxy)ethyl]-1,2-dihydrospiro[indole-3,4′-piperidin]-2-one] | 0.4
C[C@]1(O)C[C@@H](n2c(=O)ccc3cc(OCCN4CCC5(CC4)C(=O)Nc4ccc(C(F)F)cc45)cnc32)C1 [Compound 324, 5-(difluoromethyl)-1′-[2-({7-oxo-8-[(cis)-3-hydroxy-3-methylcyclobutyl]-7,8-dihydro-1,8-naphthyridin-3-yl}oxy)ethyl]-1,2-dihydrospiro[indole-3,4′-piperidin]-2-one] | 0.942
O=C1CCc2cc(OCCN3CCC4(CC3)C(=O)Nc3ccc(Cl)cc34)cnc2N1C1CC(CO)C1 (stereo not shown) [Compound 326, 5-chloro-1′-[2-({8-[3-(hydroxymethyl)cyclobutyl]-7-oxo-5,6,7,8-tetrahydro-1,8-naphthyridin-3-yl}oxy)ethyl]-1,2-dihydrospiro[indole-3,4′-piperidin]-2-one] | 0.68
CC1(O)CC(CN2C(=O)CCc3cc(OCCN4CCC5(CC4)C(=O)Nc4ccc(Cl)cc45)cnc32)C1 (stereo not shown) [Compound 327, 5-chloro-1′-[2-({8-[(3-hydroxy-3-methylcyclobutyl)methyl]-7-oxo-5,6,7,8-tetrahydro-1,8-naphthyridin-3-yl}oxy)ethyl]-1,2-dihydrospiro[indole-3,4′-piperidin]-2-one] | 0.452
C[C@]1(O)C[C@@H](n2c(=O)ccc3cc(OCCN4CCC5(CC4)C(=O)Nc4ccc(OC(F)F)cc45)cnc32)C1 [Compound 328, 5-(difluoromethoxy)-1′-[2-({7-oxo-8-[(cis)-3-hydroxy-3-methylcyclobutyl]-7,8-dihydro-1,8-naphthyridin-3-yl}oxy)ethyl]-1,2-dihydrospiro[indole-3,4′-piperidin]-2-one] | 0.748
O=C1Nc2ccc(Cl)cc2C12CCN(CCOc1cnc(C3(CO)CC3)nc1)CC2 [Compound 333, 5-chloro-1′-[2-({2-[1-(hydroxymethyl)cyclopropyl]pyrimidin-5-yl}oxy)ethyl]-1,2-dihydrospiro[indole-3,4′-piperidin]-2-one] | 0.486
CC(C)(CO)c1ncc(OCCN2CCC3(CC2)C(=O)Nc2ccc(Cl)cc23)cn1 [Compound 334, 5-chloro-1′-(2-{[2-(1-hydroxy-2-methylpropan-2-yl)pyrimidin-5-yl]oxy}ethyl)-1,2-dihydrospiro[indole-3,4′-piperidin]-2-one] | 2
CP(C)(=O)C1(c2ccc(OCCN3CCC4(CC3)C(=O)Nc3ccc(Cl)cc34)cc2)CC1 [Compound 343, 5-chloro-1′-(2-{4-[1-(dimethylphosphoryl)cyclopropyl]phenoxy}ethyl)-1,2-dihydrospiro[indole-3,4′-piperidin]-2-one] | 0.437
C[C@]1(O)C[C@@H](N2C(=O)Cc3cc(OCCN4CCC5(CC4)C(=O)Nc4ccc(Cl)cc45)cnc32)C1 [Compound 345, 5-chloro-1′-[2-({2-oxo-1-[(cis)-3-hydroxy-3-methylcyclobutyl]-1H,2H,3H-pyrrolo[2,3-b]pyridin-5-yl}oxy)ethyl]-1,2-dihydrospiro[indole-3,4′-piperidin]-2-one] | 0.469
C[C@]1(O)C[C@@H](N2C(=O)Cc3cc(OCCN4CCC5(CC4)C(=O)Nc4ccc(C(F)F)cc45)cnc32)C1 [Compound 346, 5-(difluoromethyl)-1′-[2-({2-oxo-1-[(cis)-3-hydroxy-3-methylcyclobutyl]-1H,2H,3H-pyrrolo[2,3-b]pyridin-5-yl]oxy)ethyl]-1,2-dihydrospiro[indole-3,4′-piperidin]-2-one] | 0.557
C[C@]1(O)C[C@@H](n2ccc3cc(OCCN4CCC5(CC4)C(=O)Nc4ccc(Cl)cc45)cnc32)C1 [Compound 349, 5-chloro-1′-[2-({1-[(cis)-3-hydroxy-3-methylcyclobutyl]-1H-pyrrolo[2,3-b]pyridin-5-yl}oxy)ethyl]-1,2-dihydrospiro[indole-3,4′-piperidin]-2-one] | 0.199
